Source: PubChem BioAssay (NCI)
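Dose response: 5 concentrations. Exposure: 48 h. Format: 96-well plates. Endpoint: linear interpolation; highest concentration if not reached. Definition used: TGI = concentration required for complete inhibition of growth.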

Assays:
Assay in all cases: DTP human tumour cell line panel, 48 h
HCT-116 colon = tested on: HCT-116 colon
HS 578T breast = tested on: HS 578T breast
MDA-MB-231 breast = tested on: MDA-MB-231 breast
MOLT-4 leukemia = tested on: MOLT-4 leukemia
OVCAR-4 ovarian = tested on: OVCAR-4 ovarian
OVCAR-5 ovarian = tested on: OVCAR-5 ovarian
OVCAR-8 ovarian = tested on: OVCAR-8 ovarian
PC-3 prostate = tested on: PC-3 prostate
SNB-75 CNS = tested on: SNB-75 CNS
TK-10 renal = tested on: TK-10 renal

Structure (SMILES) | TGI (HCT-116 colon) [µM] | TGI (HS 578T breast) [µM] | TGI (MDA-MB-231 breast) [µM] | TGI (MOLT-4 leukemia) [µM] | TGI (OVCAR-4 ovarian) [µM] | TGI (OVCAR-5 ovarian) [µM] | TGI (OVCAR-8 ovarian) [µM] | TGI (PC-3 prostate) [µM] | TGI (SNB-75 CNS) [µM] | TGI (TK-10 renal) [µM]
O=C(Nc1ccccc1)N(C1=NCC(CI)S1)c1ccc(F)c(F)c1 (stereo not given) | > 100 | > 100 | 83.5 | 61.4 | > 100 | > 100 | > 100 | > 100 | 55.6 | > 100
Cc1ccc(S(=O)(=O)NC(=O)Nc2nnc(S(N)(=O)=O)s2)cc1 | > 100 | > 100 | > 100 | > 100 | > 100 | > 100 | > 100 | > 100 | > 100 | > 100
S=C1c2ccc(Cl)cc2-n2cnnc2C2CSCN12 (stereo not given) | > 100 | > 100 | > 100 | > 100 | > 100 | > 100 | > 100 | > 100 | > 100 | > 100
COC(=O)C1=C(O)C(C(=O)OC)C2CC(=O)CC1C2(C)C (stereo not given) | > 100 | > 100 | > 100 | > 100 | > 100 | > 100 | > 100 | > 100 | > 100 | > 100
N#CCCN(CCC#N)c1ccc(/C=C2\N=C(c3ccccc3)N(c3ccc(F)cc3)C2=O)cc1 | > 100 | > 100 | > 100 | > 100 | > 100 | > 100 | > 100 | > 100 | > 100 | > 100
C[C@H](c1ccccc1)N1C(=O)[C@@H](O)[C@H]1[C@H](CO)OCc1ccccc1 | > 100 | > 100 | > 100 | > 100 | > 100 | > 100 | > 100 | > 100 | > 100 | > 100
O=C(Nc1ccc(N2C(=O)CSC2c2ccccc2O)cc1)c1ccc(N2C(=O)CSC2c2ccccc2O)cc1 (stereo not given) | > 100 | > 100 | > 100 | > 100 | > 100 | > 100 | > 100 | > 100 | 82.4 | > 100
COc1ccc(N2C(=O)C3c4[nH]c5ccc(OCc6ccccc6)cc5c4C4CCC(c5ccccc5)CC4C3C2=O)cc1 (stereo not given) | > 100 | 25.8 | 27.3 | > 36.8 | 3.04 | > 95.8 | 47.5 | 96.5 | 27.2 | 42.2
CC(C)/C(Cl)=N/OC(=O)Nc1ccc(Br)cc1 | 10.4 | 58.4 | 31.2 | 5.45 | 31.8 | 28.6 | 27.8 | 26.7 | 34.3 | 26.2
O=C(O)CN(CC(=O)O)C1CCCCC1N1CC(=O)OC(=O)C1 (stereo not given) | > 100 | > 100 | > 100 | > 100 | > 100 | > 100 | > 100 | > 100 | 95.5 | > 100
O=c1[nH]c(Nc2ccccc2)nc2c1ncn2CC(O)CSCCO (stereo not given) | > 100 | > 100 | > 100 | > 100 | > 100 | > 100 | > 100 | > 100 | > 100 | > 100
CC(=O)Nc1ccc2c(C)c3c(nc2n1)[nH]c1ccccc13 | 58.4 | 70 | > 100 | 53.6 | > 100 | > 100 | 87.6 | > 100 | 69.2 | > 100
OC1[C@@H]2[C@@H](O)CCCN2C[C@@H](O)[C@H]1O (stereo not given in full) | > 100 | > 100 | > 100 | > 100 | > 100 | > 100 | > 100 | > 100 | > 100 | > 100
COc1cccc(N2C(=O)CSC2c2cccc(Oc3ccccc3)c2)c1 (stereo not given) | 12 | 41.4 | 79.1 | 28.4 | 87.5 | > 100 | 50.7 | > 100 | 39.5 | 25.3
Cn1c(=O)c2c(nc3n(CC(O)CCl)c(=O)ccn23)n(C)c1=O (stereo not given) | > 100 | > 100 | > 100 | 92.1 | > 100 | > 100 | > 100 | > 100 | > 100 | > 100
COC(=O)Cc1cc(O)c2c(c1O)C(=O)c1ccccc1C2=O | > 100 | > 84.5 | 97.5 | > 100 | > 100 | > 100 | > 100 | > 100 | 49 | > 79.9
CCc1n[nH]c(=O)n1CCCCCCCCCCCCn1c(CC)n[nH]c1=O | > 100 | > 100 | > 100 | 67.7 | > 100 | > 100 | > 100 | > 100 | 80.6 | > 100
CC(N=NNc1ccc(-c2nc3ccccc3[nH]2)cc1)C(=O)O (stereo not given) | > 100 | > 100 | > 100 | > 100 | > 100 | > 100 | > 100 | > 100 | > 100 | > 100
Cc1ccc(Nc2nc3[nH]ccc3c(=O)[nH]2)cc1 | > 100 | > 100 | > 100 | > 100 | > 100 | > 100 | > 100 | > 100 | 49.9 | > 100
O=c1[nH]/c(=C/c2ccc(OCc3ccccc3)cn2)c(=O)[nH]/c1=C/c1ccccc1 | > 100 | > 100 | > 100 | > 100 | > 100 | > 100 | > 80.9 | > 100 | 0.0706 | > 100
[N-]=[N+]=Nc1c(Cc2ccccc2)c(Cl)nc2ccccc12 | 53 | 54.4 | 56.7 | > 100 | > 100 | > 100 | 46.5 | > 100 | 93.3 | 53
C#CCNC(CSSCC(N)C(=O)O)C(=O)O (stereo not given) | > 100 | > 100 | > 100 | > 100 | > 100 | > 100 | > 100 | > 100 | > 100 | > 100
N#CN1C2CCC1CC(=O)C2 | > 100 | > 100 | > 100 | > 100 | > 100 | > 100 | > 100 | > 100 | > 100 | > 100
Cc1ccc(C(=N)c2ccccc2Cc2cccc3ccccc23)c2ccccc12 | > 100 | > 100 | > 100 | > 100 | > 100 | > 100 | > 100 | > 100 | > 100 | > 100
O=C(O)CCc1nc2c(n1-c1ccccc1)C(=O)c1ccccc1C2=O | > 100 | > 100 | > 100 | > 100 | > 100 | > 100 | > 100 | > 100 | > 100 | > 100
O=C1c2cccc([N+](=O)[O-])c2C(=O)N1Cc1ccccc1 | > 100 | > 100 | > 100 | > 100 | > 100 | > 100 | > 100 | > 100 | > 100 | > 100
CCN(CCCOc1ccccc1)CCN(CC)CCCOc1ccccc1 | > 100 | 30.4 | 39.7 | 16.8 | 37.5 | 38.9 | 38 | 5.14 | 48.6 | 27.1
CCC/C(Cl)=N\OC(=O)Nc1ccc(F)cc1 | 31.1 | > 86.4 | 33.1 | 14.9 | 30.8 | 36 | > 60.9 | 31.2 | > 58 | 29.2
C=CCOC(=O)N1c2ccc(O[Si](C)(C)C(C)(C)C)cc2[C@@]23O[C@@]24[C@@H]1C#C/C=C\C#C[C@]3(O)C(OC)(OC)C[C@@H]4C | > 100 | > 89.1 | > 100 | > 42.9 | > 100 | > 100 | > 100 | > 100 | > 75.9 | > 100
COc1ccc([C@H]2[C@H]3COC(=O)[C@H]3C(C#N)=C3Sc4ccccc4N32)cc1 | > 100 | > 100 | > 67.2 | > 67.7 | > 100 | > 100 | > 100 | > 100 | > 26.7 | > 100
